The values that follow come from article PMC2362153 (British Journal of Cancer, 1999).

A short description of data set [1]: Plasma pharmacokinetics of doxorubicin and metabolites after i.v. bolus in wild-type and mdr1a(-/-) mice (HPLC). Conditions: for half-life / concentration at 1 h / concentration at 4 h / concentration at 24 h / AUC(0-t) / clearance / Vd: female, FVB, mouse, iv; for half-life: in vivo, t1/2(), elimination half-life; for half-life / AUC(0-t) / clearance / Vd: 5 mg/kg; for concentration at 1 h / concentration at 4 h / concentration at 24 h / AUC(0-t) / clearance / Vd: plasma; for concentration at 1 h / concentration at 4 h / concentration at 24 h: 5 mg kg-1, Plasma level; for concentration at 1 h: 1 h after i.v. 5 mg kg-1 doxorubicin; for concentration at 4 h: 4 h after i.v. 5 mg kg-1 doxorubicin; for concentration at 24 h: 24 h after i.v. 5 mg kg-1 doxorubicin; for AUC(0-t): AUC(0-64), area under the plasma concentration-time curve up to 64 h; for clearance: Cl; for Vd: volume of distribution. An excerpt:
(§1) Blank human plasma was obtained from healthy donors. […] All biological specimens were stored at -20C until analysis. […] However, […]

Data set [2] is described as follows: Tissue distribution of doxorubicin and metabolites in wild-type and mdr1a(-/-) mice (HPLC). Conditions: 24 h after drug administration.
Text: as §1

For data set [3] the following is noted: mouse, in vivo.
Text: as §1

In a further data set the test system is mdr1a transfected cells. On the set-up: method as in Tang-Wai et al, 1995. The following applies: ref Tang-Wai et al, 1995; cited from earlier work.
For data set [4] the following is noted: cited from earlier work.
The nature of data set [5]: Urinary and faecal excretion of doxorubicin and metabolites within 96 h (metabolic cages). The following applies: for Excretion in faeces / Excretion in urine: within 96 h after i.v. 5 mg kg-1 doxorubicin.
Experimental: Drug and metabolite concentrations were determined in plasma, tissues, urine and faeces by high-performance liquid chromatography. […] The animals were housed and handled according to institutional guidelines. Food (Hope Farms, Woerden, The Netherlands) and acidified water were given ad libitum. […] Bovine serum albumin (BSA) was obtained from Organon Teknika (Boxtel, The Netherlands). All other reagents were of analytical or Lichrosolv gradient grade and were purchased from E Merck (Darmstadt, Germany). Water was purified by the Milli-Q Plus system (Millipore, Milford, USA). Blank human plasma was obtained from healthy donors. […] The excretion study was performed with two groups of six animals, whereas in the other pharmacokinetic experiments three or four animals were used per time point. Tissue and blood samples were taken at 1, 4 and 24 h after drug adminis- tration. Blood was obtained by orbital bleeding under diethyl ether anaesthesia and collected in heparinized tubes. The animals were sacrificed by cervical dislocation to collect the following tissues: brain, skeletal muscle, colon, caecum, small gut, stomach, liver (without gall bladder), kidney, lung, spleen, heart, ovary, uterus and breast. The tissues were homogenized with a Polytron tissue homogenizer (Kinematica, Littau, Switzerland) in 4% (w/v) BSA in water, resulting in final concentrations of approximately 0.05-0.2 g tissue ml-1. Additional blood samples were obtained at 5, 15, 30 and 45 min and at 2, 8, 16, 30, 40, 56 and 64 h after drug administration. Blood samples were centrifuged (10 min, 2000 g, 4C) to separate the plasma fraction, which was stored for analysis. Urine and faeces from mice kept in Ruco Type M/1 stain- less-steel metabolic cages (Valkenswaard, The Netherlands) were collected during time intervals of 0-8, 8-24, 24-48, 48-72 and 72-96 h after drug administration. Homogenization of faeces in 4% (w/v) BSA in water (0.03-0.1 g faeces ml-1) was according to the procedure described above for tissue specimens. All biological specimens were stored at -20C until analysis. […] In brief, dilutions of faeces homogenate (20-fold) and urine (100-fold) were prepared in blank human plasma, all other specimens were used without further dilution.
For data set [6] the following is noted: over 48 h, ref Van Asperen et al, 1996, cited from earlier work.
Setting [7] is: mdr1a(-/-) mice, i.v. bolus 5 mg kg-1.
Where [8] appears, read: wild-type mice, i.v. bolus 5 mg kg-1.

Where two headings read alike, the source gives them in different places.

On to `COc1cccc2c1C(=O)c1c(O)c3c(c(O)c1C2=O)C[C@@](O)(C(=O)CO)C[C@@H]3O[C@H]1C[C@H](N)[C@H](O)[C@H](C)O1` [doxorubicin], for which, in data set [1] (setting [7]), the half-life is 24.8 h, the area under the curve AUC(0-t) turned out to be 2.27 µM·h, the clearance was 60 mL/min/kg and the volume of distribution (Vd) stood at 128 L/kg. In data set [1] (setting [8]), the half-life was 15.7 h, the AUC(0-t) is 1.82 µM·h, the clearance is 75 mL/min/kg and the distribution volume (Vd) is 101 L/kg. Besides, in data set [1] (mdr1a(-/-) mice), the concentration at 1 h was determined as 110 nM, the concentration at 4 h was 66.2 nM and the concentration at 24 h is 28.2 nM. Moreover, in data set [1] (wild-type mice), the concentration at 1 h was found to be 130 nM, the concentration at 4 h came to 70.9 nM and the concentration at 24 h is 16.3 nM. In data set [1] (i.v. bolus 5 mg kg-1), the “AUC, mdr1a(-/-) in comparison with wild-type mice” value is given as 1.2 fold; the “Vd, mdr1a(-/-) in comparison with wild-type mice” value is 1.3 fold; the “terminal half-life, mdr1a(-/-) in comparison with wild-type mice” value was 1.6 fold. Further, the “absolute concentration in hearts of mdr1a(-/-) mice compared with wild-type” value in data set [2] is reported as “more than twofold higher”. Also, in data set [3], the “tolerability of dose level” value is reported as “well tolerated”. Moreover, the “resistance of mdr1a transfected cells in comparison with non-P-glycoprotein-expressing parental cells” value in the data set on mdr1a transfected cells was 35 fold. Also, in data set [4] (ref Bellamy et al, 1995), the “doxorubicin concentration in heart on co-administration of reversal agent” value was “up to twofold higher”. The “dose excreted unchanged in faeces” value in data set [5] (within 96 h after administration, wild-type mice) was found to be 5%. In data set [5] (mdr1a(-/-) mice), the Excretion in faeces is on record as 4.1 percentage of the administered dose and the Excretion in urine is recorded as 15.4 percentage of the administered dose. Further, in data set [5] (wild-type mice), the Excretion in faeces is on record as 5.2 percentage of the administered dose and the Excretion in urine is recorded as 10.9 percentage of the administered dose.
For the compound `CC[C@]1(O)C[C@@H]2CN(CCc3c([nH]c4ccccc34)[C@@](C(=O)OC)(c3cc4c(cc3OC)N(C)[C@H]3[C@@](O)(C(=O)OC)[C@H](OC(C)=O)[C@]5(CC)C=CCN6CC[C@]43[C@@H]65)C2)C1` [vinblastine], the “resistance of mdr1a transfected cells in comparison with non-P-glycoprotein-expressing parental cells” value with mdr1a transfected cells was 53 fold. In addition, the “i.v. administered dose excreted unchanged in the faeces” value is recorded as 10% in data set [6] (mdr1a(-/-) mice) and 24% in data set [6] (wild-type mice).
As for cyclosporin A, the “mortality on co-administration with doxorubicin” value in data set [4] (non-tumour-bearing mice, ref Colombo et al, 1994, Bellamy et al, 1995, Gonzalez et al) is “high mortality”.
